Laboratory results from patent publication US20240358678A1, “METHODS AND COMPOSITIONS FOR ENHANCING CHEMOTHERAPEUTIC DRUG UPTAKE INTO BRAIN TUMORS” (Brown University, priority 2023, published 2024).
Entries after “also recorded” stand apart in the source; their conditions may differ.

Columns and labels:
[1] = system: G9-PCDH, G34-PCDH and GL-261 GBM tumors; test: ICP-MS platinum quantification in GBM tumor-bearing mice after BIA and cisplatin; assay type: in vivo; conditions: G9-PCDH xenograft, increasing BIA doses
Experimental: (§1) In vivo studies: For intra-cranial tumor implantation, GBM neuro-spheres were grown to 70% confluency before dissociated into single cell on the day of surgery. 50,000 cells were resuspended in 3 μl of sterile PBS and injected intracranially into the striatum (2 mm right hemisphere, 1 mm frontal, 3 mm depth from bregma) of mice under anesthesia and stereo-tactically fixed. Tumors were left to grow for approximately 2-3 weeks, depending the cell line. Animals were randomized to treatment groups. BIA injections consisted of 20 mg/kg (i.p.), except if indicated otherwise. PPRX-1701 was administered at 20 mg/kg (i.v.) via lateral tail-vein. Cisplatin injections were performed at 5 mg/kg (maximum tolerated dose, i.p.). All GBM tumor murine studies involved continuous condition and weight assessments, with endpoint considered when 20% of weight loss and/or moderate-to-high grimace scale and neurological symptoms were observed.
(§2) ICP-MS for platinum quantification: Mice treated with cisplatin after BIA administration were euthanized, intra-cardially perfused with PBS and tissue harvested to be stored at −80 degrees Celsius. Tissue was processed and platinum (Pt195) was quantified using an Agilent 7900 ICP-MS, as previously described.^42

[2] = system: G9-PCDH, G34-PCDH and GL-261 murine GBM tumors; test: as above; assay type: in vivo
Experimental: as §1, §2

G30 tumors = test: DCE-MRI analysis of blood flow within a murine glioblastoma (k-trans); assay type: in vivo, mouse; conditions: 24 hours after BiA 10 mg/kg IP vs pretreatment
Experimental: Magnetic Resonance Imaging (MRI): MRI was performed at the BWH Imaging Core on a 7T Bruker MRI apparatus. G30 tumors were implanted (50,000 cells per mouse) intracranially into the striatum using a stereotactic frame. After three weeks of tumor growth, MRI images were collected according to BWH Imaging Core protocols using Gadolinium contrast enhancement. After the first image was collected, BiA was administered IP at 10 mg/kg), and imaging were performed again.
The present study investigated whether the indirubin derivative, BiA (see FIG. 1A and FIG. 1B), can disrupt the permeability of the BTB. Blood flow within a murine glioblastoma was assessed using dynamic contrast-enhanced magnetic resonance imaging (DCE-MRI) analysis and as measured by k^trans.
K^trans is calculated by measuring the accumulation of gadolinium-based contrast agent in the extravascular-extracellular space. Interpretation of k^trans varied according to permeability and blood flow. In situations where permeability is very low (near-intact blood brain barrier), then k^trans is a useful measure of permeability, whereas in situations where permeability is very high (disrupted blood brain barrier), then k^trans will reflect perfusion.

HBMEC cells = test: Trans-endothelial electrical resistance (TEER) of HBMEC monolayers; assay type: cell-based, human
Experimental: Trans-endothelial electrical resistance: HCMEC/D3 or HBMEC cells were plated in 8W10E+ PET 8-well arrays (Applied Biophysics) at a density of 100,000 cells/well in 500 μl. These arrays were placed in a pre-stabilized ECIS Z-Theta instrument (Applied Biophysics). Using the ECIS Z-Theta software (Applied Biophysics), measurements were set to 4000 and 64000 Hz every 30 minutes. […] Cells would then be treated with BIA and left to grow up to 5 days, with frequent drug-containing media re-addition for maintenance of the culture. Resistance (W) and capacitance (nF) were recorded and plotted.

BBB spheroids = BBB spheroids staining and dextran permeability assay; assay type: cell-based, human; conditions: BIA 72 hours
Experimental: BBB spheroids and dextran permeability assay: BBB spheroids were grown and cultured with a FITC-conjugated (70 kDa) fluorescent dextran (Millipore Sigma) as previously reported.^51,86,87 BBB spheroids were grown for 48 hours and then treated with BIA at increasing doses for 72 hours. Then, spheroids were collected and stained as indicated above for CDH5 and F-actin (Phalloidin). In the case of fluorescent dextran incubation, BBB spheroids were collected in 1.5 mL microtubes (Eppendorf) and incubated for 3 hours at 37 degrees Celsius. Pictures were taken by confocal microscopy. For dextran permeability measurement, 21 images using Z-stack layers of 5 μm intervals for achieving a total depth of 100 μm within the sphere. Fluorescent-dextran intensity from maximal intensity projection was quantified using Image J (National Institute of Health).

G30 tumor-bearing mice = test: Sodium fluorescein (NaF) BTB permeability study; assay type: in vivo
Experimental: as §1, with “All GBM tumor murine studies involved continuous condition and weight assessments, with endpoint considered when 20% of weight loss and/or moderate-to-high grimace scale and neurological symptoms were observed.” left out
Sodium fluorescein (NaF) BTB permeability studies: NaF was administered to G30 tumor-bearing mice intravenously (i.v.) via lateral tail vein at 20 mg/kg. Then, 30 minutes after administration when peak fluorescence is reached in the brain, mice were euthanized for immediate brain tissue harvest. […] Quantification of pixel intensities from acquired images was performed in ImageJ. Tissue samples were then homogenized in 1 mL of 60% trichloroacetic acid in PBS and measured at 488 nm in a Molecular Devices SpectraMax M2 plate reader.

G9 tumors = test: Platinum uptake by ICP-MS in G9 tumor-bearing mice (Example 2); assay type: in vivo; conditions: BiA 20 mg/kg tail vein, cisplatin 5 mg/kg 24 hours later
Experimental: Inductively Coupled Plasma-Mass Spectrometry (ICP-MS): For platinum quantitation, ICP-MS was performed in an Agilent 7900 ICP mass spectrometer and controlled using the ICP-MS MassHunter software. Machine calibration was performed using a tuning solution (Agilent), containing 1 ng/mL (1 ppb) of Li, Co, Y, Ce and Ti trace-metals. In each experiment, the desired internal standard was added to each sample and standard solution. Standard curves were prepared with potassium tetrachloroplatinate (II) (Thermo Fisher) by generating dilutions of 0.1, 1, 10, 50, 100 and 1000 parts per billion (ppb). Isotopes selected for platinum detection were Pt^195. Performance reports were registered daily for calibration and accuracy records.
For the assessment of the effects of indirubin on intratumoral accumulation of platinum, G9 tumors were implanted intracranially according to the protocols described above. Cisplatin (5 mg/kg) was injected via the tail vein 24 hours post-BIA injection (20 mg/kg vial tail vein), and accumulation measured after a further 5 hours.

HCMEC/D3 cells = test: Visual assessment (brightfield) of HCMEC/D3 cells; assay type: cell-based, human; conditions: BIA 72 hours; elongated phenotype with long filipodia

## CC(=O)ON=C1C(=C2C(=O)Nc3cc(Br)ccc32)Nc2ccccc21 [BIA, 6-bromoindirubin acetoxime]
[1]
  BIA dose showing significant cisplatin accumulation in the tumor: above 10 mg/kg
[2]; cisplatin 5 mg/kg 24 hours after BIA
  platinum uptake in contralateral healthy brain regions: no significant difference of uptake
[2]; cisplatin 5 mg/kg 24 hours after BIA, 5 hours circulation
  cisplatin (platinum) accumulation in tumor after BIA pre-treatment: significant cisplatin intra-tumoral accumulation
[2]; cisplatin 24 hours after BIA
  platinum accumulation in peripheral tissues such as heart or liver: no difference in platinum accumulation
G30 tumors
  k-trans values in murine glioblastoma: significantly increased; also recorded: increased perfusion
HBMEC cells
  barrier establishment (TEER), BIA added 24 hours after plating: prevented barrier establishment
BBB spheroids
  CDH5 expression in BBB spheroids (IF): decreased the expression of CDH5 in a dose-dependent manner
  F-actin in BBB spheroids (Phalloidin): reduced considerably
BBB spheroids; dextran 3 hours
  FITC-dextran (70 kDa) permeability of BBB spheroids: dose-dependent increase in permeability
G30 tumor-bearing mice; after BIA administration
  NaF fluorescent signal in healthy brain: not in healthy brain
G30 tumor-bearing mice; after BIA administration vs untreated controls
  NaF fluorescent signal in the tumor: significant accumulation in the tumor
G9 tumors
  in vivo uptake of platinum in healthy mouse brain: not in healthy mouse brain
G9 tumors; measured after 5 hours
  in vivo uptake of platinum in tumor tissue: significantly increases the in vivo uptake of platinum
HCMEC/D3 cells
  signs of apoptosis or necrosis by visual assessment: did not show signs of apoptosis or necrosis
